Reference: PubChem BioAssay AID1259407 (Chemical Carcinogenesis Research Information System (CCRIS), 2018)
Activity calls are given as the source filed them. No rule for the calls is given here.

Tested on: CCRIS mutagenicity, Ames/micronucleus/aberration tests
Experiment: CCRIS mutagenicity studies

C=CC#N
mutagenic call (Test System: AMES SALMONELLA TYPHIMURIUM, Strain/Indicator: TA1535, Metabolic Activation: HAMSTER LIVER S-9, AROCLOR 1254 (5, 10, OR 30%), Method: PREINCUBATION): active; positive | mutagenic call (Test System: AMES SALMONELLA TYPHIMURIUM, Strain/Indicator: TA1535, Metabolic Activation: HAMSTER, LIVER, S-9, AROCLOR 1254 (2.5-20%), Method: STANDARD PLATE): active; positive | mutagenic call (Test System: AMES SALMONELLA TYPHIMURIUM, Strain/Indicator: TA1535, Metabolic Activation: HAMSTER, LIVER, S-9, AROCLOR 1254 (10%), Method: STANDARD PLATE): active; positive | mutagenic call (Test System: AMES SALMONELLA TYPHIMURIUM, Strain/Indicator: TA1535, Metabolic Activation: HAMSTER, LIVER, S-9, AROCLOR 1254 (10, 20%), Method: PREINCUBATION): active; positive | mutagenic call (Test System: AMES SALMONELLA TYPHIMURIUM, Strain/Indicator: TA1535, Metabolic Activation: HAMSTER, LIVER, S-9, AROCLOR 1254 (20%), Method: STANDARD PLATE): active; positive | mutagenic call (Test System: AMES SALMONELLA TYPHIMURIUM, Strain/Indicator: TA1535, Metabolic Activation: MOUSE, LIVER, S-9, AROCLOR 1254, Method: LIQUID, VAPOR, SPOT): active; positive | mutagenic call (Test System: AMES SALMONELLA TYPHIMURIUM, Strain/Indicator: TA1535, Metabolic Activation: NONE, Method: PREINCUBATION): inactive; negative | mutagenic call (Test System: AMES SALMONELLA TYPHIMURIUM, Strain/Indicator: TA1535, Metabolic Activation: NONE, Method: STANDARD PLATE): inactive; negative | mutagenic call (Test System: AMES SALMONELLA TYPHIMURIUM, Strain/Indicator: TA1535, Metabolic Activation: RAT LIVER S-9, AROCLOR 1254 (5%), Method: PREINCUBATION): active; positive | mutagenic call (Test System: AMES SALMONELLA TYPHIMURIUM, Strain/Indicator: TA1535, Metabolic Activation: RAT LIVER S-9, AROCLOR 1254 (5,10, OR 30%), Method: PREINCUBATION): active; positive | mutagenic call (Test System: AMES SALMONELLA TYPHIMURIUM, Strain/Indicator: TA1535, Metabolic Activation: RAT LIVER S-9, AROCLOR 1254 (10% OR 30%), Method: PREINCUBATION): active; positive | mutagenic call (Test System: AMES SALMONELLA TYPHIMURIUM, Strain/Indicator: TA1535, Metabolic Activation: RAT, LIVER, S-9, 3-METHYLCHOLANTHRENE OR PCB OR PHENOBARBITAL, Method: DESICCATOR): active; positive | mutagenic call (Test System: AMES SALMONELLA TYPHIMURIUM, Strain/Indicator: TA1535, Metabolic Activation: RAT, LIVER, S-9, AROCLOR 1254, Method: STANDARD PLATE): inactive; negative | mutagenic call (Test System: AMES SALMONELLA TYPHIMURIUM, Strain/Indicator: TA1537, Metabolic Activation: NONE, Method: STANDARD PLATE): inactive; negative | mutagenic call (Test System: AMES SALMONELLA TYPHIMURIUM, Strain/Indicator: TA1537, Metabolic Activation: RAT, LIVER, S-9, AROCLOR 1254, Method: STANDARD PLATE): inactive; negative | mutagenic call (Test System: AMES SALMONELLA TYPHIMURIUM, Strain/Indicator: TA1538, Metabolic Activation: MOUSE, LIVER, S-9, AROCLOR 1254, Method: LIQUID, VAPOR, SPOT): active; positive | mutagenic call (Test System: AMES SALMONELLA TYPHIMURIUM, Strain/Indicator: TA1538, Metabolic Activation: NONE, Method: STANDARD PLATE): inactive; negative | mutagenic call (Test System: AMES SALMONELLA TYPHIMURIUM, Strain/Indicator: TA1538, Metabolic Activation: RAT, LIVER, S-9, AROCLOR 1254, Method: STANDARD PLATE): inactive; negative | mutagenic call (Test System: AMES SALMONELLA TYPHIMURIUM, Strain/Indicator: TA1978, Metabolic Activation: MOUSE, LIVER, S-9, AROCLOR 1254, Method: VAPOR): active; positive | mutagenic call (Test System: Ames Salmonella typhimurium, Strain/Indicator: YG7108pin3ERb5, Metabolic Activation: None, Method: Standard plate): inactive; negative | mutagenic call (Test System: CHINESE HAMSTER V-79, Strain/Indicator: V-79 (HGPRT)/8-AZAGUANINE, Metabolic Activation: NONE, Method: REPLATING): inactive; negative | mutagenic call (Test System: CHINESE HAMSTER V-79, Strain/Indicator: V-79 (HGPRT)/8-AZAGUANINE, Metabolic Activation: RAT, LIVER, S-9, AROCLOR 1254, Method: REPLATING): inactive; negative | mutagenic call (Test System: E. COLI, Strain/Indicator: WP2, Metabolic Activation: NONE, Method: FLUCTUATION): active; positive | mutagenic call (Test System: E. COLI, Strain/Indicator: WP2, Metabolic Activation: NONE, Method: STANDARD PLATE): active; positive | mutagenic call (Test System: E. COLI, Strain/Indicator: WP2 UVRA, Metabolic Activation: NONE, Method: STANDARD PLATE): active; positive | mutagenic call (Test System: MOUSE LYMPHOMA, Strain/Indicator: L5178Y (TK+/+)/OUABAIN, Metabolic Activation: NONE, Method: SUSPENSION/PLATE): inactive; negative | mutagenic call (Test System: MOUSE LYMPHOMA, Strain/Indicator: L5178Y (TK+/+)/OUABAIN, Metabolic Activation: RAT LIVER S-9, AROCLOR 1254, Method: SUSPENSION/PLATE): inactive; negative | mutagenic call (Test System: MOUSE LYMPHOMA, Strain/Indicator: L5178Y (TK+/TK-), Metabolic Activation: RAT, LIVER, S-9, Method: SUSPENSION/PLATE): active; positive | mutagenic call (Test System: MOUSE LYMPHOMA, Strain/Indicator: L5178Y(TK+/TK-)/TRIFLUOROTHYMIDINE, Metabolic Activation: NONE, Method: SUSPENSION PLATE): active; positive | mutagenic call (Test System: UDS HUMAN MAMMARY EPITHELIAL CELLS, Strain/Indicator: THY INCORP, Metabolic Activation: NONE, Method: AUTORADIOGRAPHY): inactive; negative | mutagenic call (Test System: UDS PRIMARY RAT HEPATOCYTES, Strain/Indicator: THY INCORP, Metabolic Activation: NONE, Method: AUTORADIOGRAPHY): inactive; negative | mutagenic call (Test System: UDS PRIMARY RAT HEPATOCYTES, Strain/Indicator: THY INCORP, Metabolic Activation: NONE, Method: IN VIVO-IN VITRO): inactive; negative | mutagenic call (Test System: UDS PRIMARY RAT SPERMATOCYTES, Strain/Indicator: THY INCORP, Metabolic Activation: NONE, Method: IN VIVO-IN VITRO): inactive; negative | mutagenic call (Test System: UDS RAT HEPATOCYTES, Strain/Indicator: THY INCORP, Metabolic Activation: NONE, Method: LIQUID SCINTILLATION COUNTING): active; positive
